The source of these data is patent US20180118699A1, “SK AND IK CHANNEL AGONISTS FOR TREATMENT OF HEART FAILURE” (THE TRUSTEES OF COLUMBIA UNIVERSITY IN THE CITY OF NEW YORK, priority 2015, published 2018).

Read-outs that look alike come from different tables or passages of the source.

One series deals with SK3 and IK1 channels. Description: Electrophysiology of freshly isolated mesenteric endothelial cells. It is filed as cell-based, mice. The text has this: FIGS. 18A-18D collectively are graphs showing electrophysiological characterization of SK channels in freshly isolated mesenteric endothelial cells.
Endothelial cells were isolated from third-order mesenteric arteries of mice using enzymatic digestion followed by labeling the endothelial cells with CD34 antibody-labeled magnetic beads, collecting them using a magnet and then releasing them from the beads by competition. To measure both SK3 and IK1 currents, the cells were dialyzed with KCl-solution containing 3 μM free Ca^2+ and currents elicited using voltage ramps and by the activator NS-309 (see FIGS. 18A-18B).

Series [1] deals with mesenteric resistance vessels. Description: Dilation of cannulated mesenteric resistance vessels.
Experimental: Vessels were mounted onto cannulas and equilibrated at 80 mm Hg. […] The vessels were continuously constricted with 1 μM phenylephrine. […] At the conclusion of the experiment, the vessels were superfused in a Ca^2+-free solution to determine maximal dilation. Data shown are mean+s.e.m., relative to maximal dilation determined in Ca^2+-free solution. N=4.
In another series the target is T1, human KCNN3 (SK3) (Homo sapiens, UniProt P0DP23+Q9UGI6).
T1 construct: GFP; expressed in transfected cells; host or cells: HEK293
Kind of series: Whole-cell patch clamp of KCa potassium channel activator activity in transfected HEK293 cells. Type of series: cell-based. To be noted: HEK293 SK3 whole-cell currents. The text has this: Currents were activated by 200 msec depolarizing ramps between −120 mV and +30 mV, from a holding potential of −90 mV, and then deactivated by repolarization to the holding potential. […] Colored bars indicate application of the XX-03-64 and XX-03-56 agonists.
Currents were activated by 200 msec depolarizing ramps between −120 mV and +30 mV, from a holding potential of −90 mV, and then deactivated by repolarization to the holding potential. Voltage ramps were applied every 5 seconds. The bath solution was 140 mM NaCl, 4 mM KCl, 0.1 mM CaCl2, 3 mM Mg Cl2, 10 mM HEPES (pH 7.4) and the pipette solution was 150 mM KCl, 5 mM TES (pH 7.2), 2 mM HEDTA, and 1 μM free Ca^2+. The free Ca^2+ concentration was calculated using the Max Chelator program and confirmed using a Ca^2+ electrode (Orion). Agonists were superfused in the bath solution.

For series [2] the following is noted: two hours after IP injection of 100 μg (5 μg/g); cited from earlier work.
For series [3] the following is noted: cited from earlier work; for lowering of mean arterial pressure: 30 mg/kg.
For series [4] the following is noted: rats; cited from earlier work.
For series [5] the following is noted: mice; cited from earlier work.
For series [6] the following is noted: cited from earlier work.
The subject of a further series is SK channels. To be noted: cited from earlier work.
Series [7] is described as follows: IV bolus in mouse with systolic heart failure, left ventricular pressure-volume recording. The conditions noted are these: IV bolus 3 mg/kg, wildtype mouse with heart failure (FAC 38%). It is filed as in vivo. The method, then:
FIG. 22 depicts data of a wildtype mouse with heart failure (FAC 38%) given an IV bolus of SKA-31 (3 mg/kg) through the left internal jugular vein during simultaneous recording of left ventricular pressure and volume using a Milar conductance catheter inserted through the right carotid artery.
In this experiment, a wildtype mouse with heart failure (FAC 38%) was given an IV bolus of SKA-31 (3 mg/kg) through the left internal jugular vein during simultaneous recording of left ventricular pressure and volume using a Milar conductance catheter inserted through the right carotid artery. (FIG. 22)
BK channel deficient mice and wildtype littermates developed an ischemic cardiomyopathy after surgical ligation of the left anterior descending coronary artery. Systolic heart failure was confirmed six weeks later by noting a fractional area of change (FAC) of 40% or lower on 2D echocardiography (Visualsonics Vevo 2100). […] Continuous LV pressure and volume measurements were recorded (MPVS Ultra by Milar with PowerLab 4/35 and LabChart by ADInstruments). After stable baseline LV measurements were recorded, vehicle (Cremophor EL made by Calbiochem) was infused intravenously into the cannulated internal jugular vein as a single bolus in the same volume later used to deliver an intravenous bolus of SKA-31 (Tocris) at 3 mg/kg. […]

In series [8] the target is T2, BK channels (Mus musculus, UniProt Q08460).
T2 construct: from tissue; host or cells: third-order mesenteric resistance arteries of mice (sham and heart failure)
T2 sequence (Q08460 whole entry): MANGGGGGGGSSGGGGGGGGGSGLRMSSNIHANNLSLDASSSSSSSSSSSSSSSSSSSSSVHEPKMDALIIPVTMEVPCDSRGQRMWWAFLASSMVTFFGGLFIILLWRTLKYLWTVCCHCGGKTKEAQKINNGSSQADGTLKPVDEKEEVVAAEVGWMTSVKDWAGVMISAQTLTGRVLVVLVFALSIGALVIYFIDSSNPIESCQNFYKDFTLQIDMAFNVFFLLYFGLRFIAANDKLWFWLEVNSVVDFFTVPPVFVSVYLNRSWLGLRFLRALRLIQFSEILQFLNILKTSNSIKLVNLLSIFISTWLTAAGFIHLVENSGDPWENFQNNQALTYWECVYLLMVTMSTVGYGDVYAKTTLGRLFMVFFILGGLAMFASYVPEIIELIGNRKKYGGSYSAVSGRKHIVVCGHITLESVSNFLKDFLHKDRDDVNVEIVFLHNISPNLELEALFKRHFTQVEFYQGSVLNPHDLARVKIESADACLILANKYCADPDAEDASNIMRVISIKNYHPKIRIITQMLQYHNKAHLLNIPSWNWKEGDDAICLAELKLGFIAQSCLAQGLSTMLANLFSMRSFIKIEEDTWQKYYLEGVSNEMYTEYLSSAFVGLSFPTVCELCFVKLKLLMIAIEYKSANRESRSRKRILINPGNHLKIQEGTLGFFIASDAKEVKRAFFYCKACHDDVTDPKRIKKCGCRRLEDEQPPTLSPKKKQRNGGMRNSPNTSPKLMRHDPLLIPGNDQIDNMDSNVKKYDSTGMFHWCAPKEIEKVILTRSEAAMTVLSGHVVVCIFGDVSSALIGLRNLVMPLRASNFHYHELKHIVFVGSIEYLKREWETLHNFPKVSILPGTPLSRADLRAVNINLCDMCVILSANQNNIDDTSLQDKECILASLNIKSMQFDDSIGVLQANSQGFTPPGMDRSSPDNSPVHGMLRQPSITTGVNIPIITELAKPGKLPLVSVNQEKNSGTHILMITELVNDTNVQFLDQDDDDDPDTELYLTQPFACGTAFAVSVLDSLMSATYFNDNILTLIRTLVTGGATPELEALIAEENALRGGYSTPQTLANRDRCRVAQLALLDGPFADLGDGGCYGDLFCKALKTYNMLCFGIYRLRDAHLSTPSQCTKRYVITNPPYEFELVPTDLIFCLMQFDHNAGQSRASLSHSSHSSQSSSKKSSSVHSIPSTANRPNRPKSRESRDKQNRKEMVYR
T2 sequence (Q8CAE3 whole entry partner): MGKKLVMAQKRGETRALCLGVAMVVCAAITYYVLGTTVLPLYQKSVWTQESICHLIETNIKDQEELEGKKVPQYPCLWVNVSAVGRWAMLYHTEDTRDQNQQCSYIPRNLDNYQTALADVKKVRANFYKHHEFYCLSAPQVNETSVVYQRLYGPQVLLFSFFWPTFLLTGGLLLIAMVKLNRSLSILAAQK
Kind of series: Whole cell K+ currents in freshly isolated mesenteric VSM cells. It is filed as cell-based, mice. The conditions noted are these: control VSM cells, 2 μM Ang II. How it is done: Whole cell K^+ currents at baseline (black trace) and after exposure to 1 μM paxilline (red trace in FIG. 14A) or 2 μM Ang II (blue trace in FIG. 14B). The intrapipette solution contained 9 μM Ca^2+.
Conversely, Ang II (2 μM) or phenylephrine (10 μM) may differentially modulate channel function in VSM cells isolated from HF mice. Ang II inhibits BK channel function through its effects on PKC, c-Src and Nox (Lu et al. 2010). Ang II causes less inhibition if BK channels are already modified by PKC, c-Src or Nox pathways, as compared to the effect on BK channels from control VSM cells, in which Ang II suppressed BK current by 50% (see FIG. 14B).
Two determinants of BK activity are used: STOCs and whole-cell current density. BK currents are a very large fraction of the total K^+ currents in freshly isolated mesenteric VSM cells (see FIG. 14A). […] PKCα and PKCδ may be the relevant PKC isoforms, which are further delineated using specific inhibitors.

Series [9] concerns the target T2, BK channels. Kind of series: Myogenic tone of pressurized mesenteric arteries with BK channel blocker. The arrangement: species or system mice. The conditions noted are these: for increase of constriction: 120 mm Hg. The method, then: FIG. 11A is a graph showing the effect of paxilline on myogenic tone measured at 120 mm Hg. Constriction induced by paxilline was calculated as the difference between myogenic tone (%) pre- and post-paxilline. Mean+s.e.m. No heart failure (no HF): N=6 vessels; heart failure (HF): N=5 vessels. ** P<0.01, Student's t test. FIG. 11B is a graph showing that myogenic tone is equivalent in paxilline-treated vessels from control mice and mice with heart failure. Mean+s.e.m. No HF: N=6 vessels; HF: N=5 vessels.
If HF alters myogenic tone by reducing BK channel expression and currents, then the effect of paxilline should be reduced. […] Inhibiting BK channels with paxilline in sham-treated (no HF) control mice caused an increase in myogenic tone, approximating the increased myogenic tone of vessels isolated from HF mice (see FIG. 11B).

The conditions of series [10]: cited from earlier work. This is another data set of the same source.
Where [11] appears, read: mesenteric arteries from HF mice.
Where [12] appears, read: mesenteric arteries from mice without HF.

`C[N+](C)(C)CCOC(N)=O` [carbachol]: the “endothelial cell membrane potential” value in the series on SK3 and IK1 channels (carbachol 2 μM) is “hyperpolarization of endothelial cell membrane potential”.

Consider `Clc1ccccc1C(c1ccccc1)(c1ccccc1)n1cccn1` [TRAM-34], for which the “effect on SKA-31 (1 μM)-mediated vasodilation” value in series [1] (intraluminal 1 μM TRAM-34 and 100 nM apamin together, phenylephrine-constricted vessels) is recorded as “prevented”.

For the compound `Cc1ccc2ccc3sc(N)nc3c2c1` [XX-03-64], the “Note: rank of activity” value on human KCNN3 (SK3) is recorded as “least active”.

On to `Nc1nc2c(ccc3cc(Cl)ccc32)s1` [XX-03-56], for which, on human KCNN3 (SK3), the “Note: rank of activity” value is “Most active”.

With `COc1ccc2c(ccc3sc(N)nc32)c1` [XX-03-52], at human KCNN3 (SK3), the “Note: rank of activity” value was found to be 2nd most active.

For `CC(=O)c1c(O)c(C)c(O)c(Cc2c(O)c3c(c(C(=O)/C=C/c4ccccc4)c2O)OC(C)(C)C=C3)c1O` [rottlerin, Rottlerin], in [2], the plasma level is 2900 ng/mL.

On to `Nc1nc2c(ccc3ccccc32)s1` [XX-03-58, naphtha[1,2-d]thiazol-2-ylamine], for which the “lowering of mean arterial pressure” value in series [3] (mice with hypertension) is 12 mm Hg; in [3] (normal mice), 6 mm Hg. Besides, the “lowering of blood pressure” value in [3] (single IP injection 10 mg/kg, at 24 h) was 4 mm Hg. Further, the acute toxicity result in series [4] and in [5] was “no acute toxicity” each time. In addition, the dilation of vessels result is recorded as “effectively dilated the vessels” in series [1] (intraluminal 250 nM or 1 μM, vessels of control mice and mice with HF); “caused dilatation of vessels from β1 null mice to a similar extent as vessels from WT mice” in [1] (phenylephrine-constricted vessels of BK β1 null mice). The free plasma level in series [6] (10 mg/kg IP, 24 h) is given as 300 nM. The plasma concentration was 5500 nM in series [6] (10 mg/kg IP, mice, 2 h); 1400 nM in series [6] (10 mg/kg IP, mice, 4 h); 500 nM in [6] (10 mg/kg IP, mice, 24 h). In addition, the free in plasma in series [6] (mice) is 61%. For the same compound, the plasma protein-bound in series [6] (mice) is on record as 39%. Besides, in the series with SK channels, the “EC50 of SK channel activation” value is given as “low μM range”. Moreover, in series [7], the cardiac work entry was “improves cardiac work”.

Consider “angiotensin II (DRVYIHPF; Angiotensin-2; UniProt P01019 25-32, looked up) [Ang II, circulating angiotensin II]”, for which, in the series with BK channels [8], the “suppression of BK current” value turned out to be 50%.

Consider `CC(C)(O)[C@H]1O[C@H]2CC[C@@]3(C)[C@@](O)(CC[C@H]4Cc5c([nH]c6ccccc56)[C@@]43C)C2=CC1=O` [paxilline], for which the figures for the “relative increase in myogenic tone” value on BK channels [9] (setting [11]) and at BK channels [9] (setting [12]) were 3% and 51.9%, respectively. Moreover, the increase of constriction was found to be 0.9% at BK channels [9] (setting [11]) and 10.9% at BK channels [9] (setting [12]).

As for NS-309, the “activation of SK/IK channels” value in the series on SK3 and IK1 channels (5 μM NS-309) is “reversible NS-309 (5 μM) activation of SK/IK channels”. In addition, the “endothelial cell membrane potential” value in the series with SK3 and IK1 channels (NS309) is listed as “caused hyperpolarization of the endothelial cell membrane potential”. In series [10], the half-life result was “extremely short half-life”.
